In patent US7119095B2, “Pharmaceutically active compounds and methods of use thereof” (Dana Farber Cancer Institute, priority 2001, dated 2006):
One block for each molecule: values may come before it.

Legend:
[1] = target: T1, T. gondii DHFR (Toxoplasma gondii, UniProt Q07422); assay type: biochemical; settings: compounds 3a-k
T1 sequence (Q07422 1-610): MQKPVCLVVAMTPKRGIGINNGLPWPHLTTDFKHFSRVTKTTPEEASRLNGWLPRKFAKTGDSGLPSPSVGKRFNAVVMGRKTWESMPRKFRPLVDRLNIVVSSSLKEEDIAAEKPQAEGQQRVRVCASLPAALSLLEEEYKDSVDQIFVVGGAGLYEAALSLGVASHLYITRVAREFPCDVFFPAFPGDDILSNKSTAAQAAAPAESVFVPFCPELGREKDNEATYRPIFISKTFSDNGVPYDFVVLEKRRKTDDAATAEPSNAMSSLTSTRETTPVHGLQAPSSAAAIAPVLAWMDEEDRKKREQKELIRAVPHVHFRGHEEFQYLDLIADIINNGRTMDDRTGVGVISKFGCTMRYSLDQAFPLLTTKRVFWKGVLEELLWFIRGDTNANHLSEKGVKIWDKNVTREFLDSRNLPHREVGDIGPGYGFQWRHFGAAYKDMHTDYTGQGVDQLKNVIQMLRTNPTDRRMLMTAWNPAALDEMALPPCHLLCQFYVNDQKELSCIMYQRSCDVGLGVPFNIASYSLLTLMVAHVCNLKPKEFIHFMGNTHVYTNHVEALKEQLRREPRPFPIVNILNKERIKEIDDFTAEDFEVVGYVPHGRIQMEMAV

[2] = target: T2, M. avium DHFR (Mycobacterium avium, UniProt O30463); experiment: Inhibition of M. avium DHFR (literature assay); assay type: biochemical; settings: compounds 3a-k
T2 sequence (O30463 1-181): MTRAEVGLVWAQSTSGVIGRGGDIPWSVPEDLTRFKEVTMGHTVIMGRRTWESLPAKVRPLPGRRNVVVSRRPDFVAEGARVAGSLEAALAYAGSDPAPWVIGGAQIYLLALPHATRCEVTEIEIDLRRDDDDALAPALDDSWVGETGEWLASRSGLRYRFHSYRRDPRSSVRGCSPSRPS

[3] = target: T3, rat liver DHFR (Rattus norvegicus, UniProt Q920D2); experiment: Inhibition of rat liver DHFR (literature assay); settings: read-out: IC50 (μM) Rat liver, compounds 3a-k
T3 sequence (Q920D2 1-187): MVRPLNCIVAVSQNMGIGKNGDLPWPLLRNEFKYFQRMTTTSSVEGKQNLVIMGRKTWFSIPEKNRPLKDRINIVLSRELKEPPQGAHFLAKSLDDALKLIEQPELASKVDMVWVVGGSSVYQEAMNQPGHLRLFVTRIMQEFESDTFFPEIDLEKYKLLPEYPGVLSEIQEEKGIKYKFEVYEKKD

[4] = target: E. coli DHFR (Escherichia coli, UniProt P0ABQ4); settings: Kuyper et al., J. Med. Chem. 1985; cited from earlier work
[5] = target: T1, T. gondii DHFR; settings: reported in the literature; cited from earlier work

Structure (SMILES): CCCCCOc1ccc(OC)c(Cc2cnc(N)nc2N)c1 [Compound 3a, 2,4-Diamino-5-(2-methoxy-5-pentyloxybenzyl)pyrimidine]
- IC50 [1]: 6.5 µM
- IC50 [2]: 0.31 µM
- IC50 [3]: 44 µM

Structure (SMILES): COc1cc(Cc2cnc(N)nc2N)cc(OCCCCCC(=O)O)c1OC [Compound 18]
- Ki E. coli DHFR [4]: highest affinity

Structure (SMILES): CCCCCCCCCOc1ccc(OC)c(Cc2cnc(N)nc2N)c1 [Compound 3e, 2,4-Diamino-5-(2-methoxy-5-nonyloxybenzyl)pyrimidine]
- IC50 [1]: 32 µM
- IC50 [2]: 32 µM
- IC50 [3]: 86 µM

Structure (SMILES): COc1ccc(OCCCCCCCC(=O)O)cc1Cc1cnc(N)nc1N [Compound 3j]
- IC50 [1]: 0.36 µM
- IC50 [2]: 0.13 µM
- IC50 [3]: 12 µM

Structure (SMILES): CCCCCCCOc1ccc(OC)c(Cc2cnc(N)nc2N)c1 [Compound 3c, 2,4-Diamino-5-(2-methoxy-5-heptyloxybenzyl)pyrimidine]
- IC50 [1]: 5 µM
- IC50 [2]: 0.89 µM
- IC50 [3]: 11 µM

Structure (SMILES): COc1ccc(OCCCC(=O)O)cc1Cc1cnc(N)nc1N [Compound 3f]
- IC50 [1]: 0.18 µM
- IC50 [2]: 0.0048 µM
- IC50 [3]: 2.6 µM

Structure (SMILES): COc1ccc(OCCCCCCCCC(=O)O)cc1Cc1cnc(N)nc1N [Compound 3k]
- IC50 [1]: 0.43 µM
- IC50 [3]: 12 µM

Structure (SMILES): COc1ccc(OCCCCCCC(=O)O)cc1Cc1cnc(N)nc1N [Compound 3i]
- IC50 [2]: 0.19 µM
- IC50 [3]: 12 µM

Structure (SMILES): CCCCCCOc1ccc(OC)c(Cc2cnc(N)nc2N)c1 [Compound 3b, 2,4-Diamino-5-(2-methoxy-5-hexyloxybenzyl)pyrimidine]
- IC50 [1]: 9.2 µM
- IC50 [2]: 0.39 µM
- IC50 [3]: 29 µM

Structure (SMILES): CCOc1cc(Cc2cnc(N)nc2N)cc(OCC)c1-n1cccc1 [Compound 19, epiroprim]
- selectivity T. gondii versus rat liver DHFR [5]: 155

- IC50 [3]: 30 µM
Structure (SMILES): CCCCCCCCOc1ccc(OC)c(Cc2cnc(N)nc2N)c1 [Compound 3d, 2,4-Diamino-5-(2-methoxy-5-octyloxybenzyl)pyrimidine]
- IC50 [1]: 15 µM

Structure (SMILES): COc1ccc(OCCCCCC(=O)O)cc1Cc1cnc(N)nc1N [Compound 3h]
- IC50 [1]: 0.48 µM
- IC50 [2]: 0.15 µM
- IC50 [3]: 17 µM
